Results from ChEMBL document CHEMBL1201862, “PubChem BioAssay data set” (2004).
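Grown in 96-well plates, cells were treated for 48 hours with each compound at five concentrations. Insufficient inhibition: endpoint recorded as highest concentration tested. The concentration for 50% growth inhibition is given as GI50.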 Activity calls are given as the source filed them. Rule as the data show it: active = GI50 up to about 1.1 µM and inactive = higher.

Key:
Assay in all cases: NCI tumour cell line growth inhibition, 48 h
[1] = tested on: SNB-19
[2] = tested on: HCC 2998
[3] = tested on: SK-MEL-5
[4] = tested on: COLO 205
[5] = tested on: LOX IMVI
[6] = tested on: OVCAR-4
[7] = tested on: CCRF-CEM
[8] = tested on: SK-MEL-2
[9] = tested on: SK-OV-3
[10] = tested on: KM12
[11] = tested on: MOLT-4
[12] = tested on: UACC-62
[13] = tested on: UO-31
[14] = tested on: SF-268
[15] = tested on: HOP-62
[16] = tested on: EKVX
[17] = tested on: SF-539
[18] = tested on: A549
[19] = tested on: NCI-H23
[20] = tested on: CAKI-1

Measured: GI50

C=C1C(=O)OC2C1CCC(C)C1(O)C=CC(=O)C21C (stereo not drawn)
inactive: [1] > 10 µM | [2] > 10 µM | [3] > 10 µM | [4] > 10 µM | [5] > 10 µM | [6] 7.6 µM | [7] 2.73 µM | [8] > 10 µM | [9] > 10 µM | [10] > 10 µM | [11] 3.1 µM | [12] 6.68 µM | [13] 3.24 µM | [14] > 10 µM | [15] > 10 µM | [16] > 10 µM | [17] > 10 µM | [18] > 10 µM | [19] 7.69 µM

C=CCNC(=O)ON1C(=O)CCC1=O
inactive: [1] > 100 µM | [2] > 100 µM | [4] > 100 µM | [5] > 100 µM | [6] > 100 µM | [7] > 100 µM | [8] > 100 µM | [9] > 100 µM | [10] > 100 µM | [11] > 100 µM | [12] > 100 µM | [13] > 100 µM | [14] > 100 µM | [15] > 100 µM | [16] > 100 µM | [17] > 100 µM | [18] > 100 µM | [19] > 100 µM

COc1cc(/C=N/N=C2NCCCN2)ccc1O
inactive: [1] > 100 µM | [2] > 100 µM | [3] > 100 µM | [4] > 100 µM | [5] > 100 µM | [6] > 100 µM | [7] > 100 µM | [8] > 100 µM | [9] > 100 µM | [10] > 100 µM | [11] > 100 µM | [12] > 100 µM | [13] > 100 µM | [14] > 100 µM | [15] > 100 µM | [16] > 100 µM | [17] > 100 µM | [18] > 100 µM | [19] > 100 µM

C[C@@]12c3c4ccc(C=O)c3Oc3ccc(C=O)c(c31)Oc1c(C=O)ccc(c12)O4
inactive: [1] > 100 µM | [2] > 100 µM | [3] > 100 µM | [4] > 100 µM | [5] > 100 µM | [6] > 100 µM | [8] > 100 µM | [9] > 100 µM | [10] > 100 µM | [11] > 100 µM | [12] > 100 µM | [13] > 100 µM | [14] > 100 µM | [15] > 100 µM | [16] > 100 µM | [17] > 100 µM | [18] > 100 µM | [19] > 100 µM

O=C1CCCCC1CN1CCCC1 (stereo not drawn)
inactive: [2] > 100 µM | [3] > 100 µM | [4] > 100 µM | [5] > 100 µM | [6] > 100 µM | [7] 65.6 µM | [8] > 100 µM | [9] > 100 µM | [10] > 100 µM | [11] > 100 µM | [14] > 100 µM | [15] > 100 µM | [16] > 100 µM | [18] > 100 µM | [19] > 100 µM

CC(=O)O[C@H]1CCC2[C@@H]3CCC4C(=O)c5oncc5C[C@]4(C)C3CC[C@@]21C (stereo partly drawn)
inactive: [1] > 10 µM | [2] > 100 µM | [3] > 100 µM | [4] > 100 µM | [5] 28 µM | [6] 5.21 µM | [7] > 100 µM | [8] > 100 µM | [9] > 100 µM | [10] > 100 µM | [11] > 100 µM | [12] 60.3 µM | [13] > 10 µM | [14] > 100 µM | [15] > 100 µM | [16] 22.4 µM | [17] > 10 µM | [18] > 100 µM | [19] > 100 µM

C#CCn1c2c(c3ccccc3c1=O)C(=O)c1ccccc1-2
inactive: [3] 2.37 µM | [4] 22.4 µM | [5] 18.2 µM | [6] 11.4 µM | [7] > 100 µM | [8] 29.9 µM | [9] 27.4 µM | [10] 10.1 µM | [11] 2.83 µM | [12] 21.4 µM | [20] 12 µM | [13] 2 µM | [14] 14 µM | [15] 11.9 µM | [16] 16.3 µM | [17] 11.6 µM | [18] 13.6 µM | [19] 11.4 µM

CC(C)(C)c1cc(/C=C(\C#N)C(=O)NCCO)cc(C(C)(C)C)c1O
inactive: [1] 32.1 µM | [3] 14.9 µM | [4] 20.5 µM | [5] 25.1 µM | [6] 17.8 µM | [7] 15.1 µM | [8] 17.6 µM | [9] 20.7 µM | [10] 21.5 µM | [11] 18.7 µM | [12] 13.6 µM | [20] 24.5 µM | [13] 19.9 µM | [14] 31.9 µM | [15] 21.2 µM | [16] 24.5 µM | [17] 18.3 µM | [18] 27.4 µM | [19] 27.9 µM

COc1cc2c(cc1OC)C(C#N)(Cc1ccccc1)N(C(=O)c1ccccc1)C=C2 (stereo not drawn)
inactive: [1] > 100 µM | [2] > 100 µM | [3] 26 µM | [4] 35.2 µM | [5] > 100 µM | [7] 35.6 µM | [8] > 100 µM | [9] 75.3 µM | [10] 60.7 µM | [11] 32.5 µM | [12] 31.3 µM | [13] 36 µM | [14] > 100 µM | [15] 51.5 µM | [16] 39.6 µM | [17] > 100 µM | [19] 75.7 µM

CC(CC(=O)O)C(C(=O)O)C(=O)O (stereo not drawn)
inactive: [1] > 100 µM | [3] > 100 µM | [4] > 100 µM | [5] > 100 µM | [6] > 100 µM | [7] > 100 µM | [8] > 100 µM | [9] > 100 µM | [10] > 100 µM | [11] > 100 µM | [12] > 100 µM | [20] > 100 µM | [13] > 100 µM | [14] > 100 µM | [15] > 100 µM | [16] > 100 µM | [17] > 100 µM | [18] > 100 µM | [19] > 100 µM

CCOc1cc(NC(C)=O)ccc1C(=O)NN1C(=O)/C(=C/c2ccc(Cl)cc2)N=C1c1ccccc1
inactive: [1] > 100 µM | [3] 24.2 µM | [4] 33.7 µM | [5] 62.7 µM | [6] 22.3 µM | [7] 25 µM | [8] 28.3 µM | [9] > 100 µM | [10] 34.3 µM | [11] 17.7 µM | [20] 43.1 µM | [13] 34.9 µM | [15] 44.9 µM | [16] 26 µM | [17] 90.2 µM | [18] 37.8 µM | [19] 41.6 µM
